The target in experiment [1] is T1, High affinity choline transporter 1 (Homo sapiens, UniProt Q9GZV3).
T1 sequence (Q9GZV3 whole entry): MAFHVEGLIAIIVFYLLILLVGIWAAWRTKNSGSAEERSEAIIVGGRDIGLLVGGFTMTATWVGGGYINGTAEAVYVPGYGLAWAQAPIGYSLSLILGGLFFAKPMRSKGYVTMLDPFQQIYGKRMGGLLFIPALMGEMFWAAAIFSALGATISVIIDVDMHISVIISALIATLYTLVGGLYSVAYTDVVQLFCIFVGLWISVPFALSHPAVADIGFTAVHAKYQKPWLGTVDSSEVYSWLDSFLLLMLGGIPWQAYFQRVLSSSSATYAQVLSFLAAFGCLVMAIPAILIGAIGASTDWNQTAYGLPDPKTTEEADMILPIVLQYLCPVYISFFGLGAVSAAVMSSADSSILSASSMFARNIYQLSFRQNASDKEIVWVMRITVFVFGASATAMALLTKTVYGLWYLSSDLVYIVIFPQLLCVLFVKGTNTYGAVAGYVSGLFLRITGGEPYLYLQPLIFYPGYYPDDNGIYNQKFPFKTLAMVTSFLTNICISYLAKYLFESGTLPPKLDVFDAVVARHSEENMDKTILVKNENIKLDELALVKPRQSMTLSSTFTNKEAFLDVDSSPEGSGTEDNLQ
The experiment in a line: CHT inhibitors, dose response, cell-based, 5-point CRC, membrane potential dye (AID 504840). In kind it is functional.

Experiment [2] concerns the target T1, High affinity choline transporter 1. The experiment in a line: inhibitors of CHT choline uptake, dose response, cell-based, 3H-choline uptake, CHT LV-AA trafficking mutant, CRC (AID 602208). In kind it is functional.
Experiment [3] has the same target. The experiment in a line: CHT inhibitors, dose response, cell-based, 10-point CRC, membrane potential dye (AID 588401).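 Note: membrane potential dye fluorescence of choline-evoked depolarization via CHT.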 The class given is functional.
Experiment [4] concerns the target Tyrosine-protein phosphatase non-receptor type 11 (Homo sapiens, UniProt Q06124). The experiment in a line: SHP2 phosphatase inhibition, dose response, selectivity assay for STEP inhibitor project, biochemical (AID 602367). In kind it is functional. The following applies: read-out: IC50_Mean.
For experiment [5], the target named is Dual specificity protein phosphatase 3 (Homo sapiens, UniProt P51452). The experiment in a line: VHR phosphatase inhibition, dose response, selectivity assay for STEP inhibitor project, biochemical (AID 602374). The class given is functional. The following applies: read-out: IC50_Mean.
Experiment [6] addresses Glucose-6-phosphate 1-dehydrogenase (Homo sapiens, UniProt P11413). The experiment in a line: human G6PD enzyme inhibitors, dose response, selectivity assay for P. falciparum G6PD inhibitor project, biochemical, fluorescence (AID 504792). The class given is functional.
Experiment [7] concerns the target Tyrosine-protein phosphatase non-receptor type 5 (Homo sapiens, UniProt P54829). The experiment in a line: STEP phosphatase inhibitors, confirmation, biochemical, fluorescence intensity, uHTS hits (AID 602372). In kind it is functional. The settings on record: read-out: IC50_Mean.
Experiment [8] has as its target T2, Tyrosine-protein phosphatase non-receptor type 7 (Homo sapiens, UniProt P35236).
T2 sequence (P35236 whole entry): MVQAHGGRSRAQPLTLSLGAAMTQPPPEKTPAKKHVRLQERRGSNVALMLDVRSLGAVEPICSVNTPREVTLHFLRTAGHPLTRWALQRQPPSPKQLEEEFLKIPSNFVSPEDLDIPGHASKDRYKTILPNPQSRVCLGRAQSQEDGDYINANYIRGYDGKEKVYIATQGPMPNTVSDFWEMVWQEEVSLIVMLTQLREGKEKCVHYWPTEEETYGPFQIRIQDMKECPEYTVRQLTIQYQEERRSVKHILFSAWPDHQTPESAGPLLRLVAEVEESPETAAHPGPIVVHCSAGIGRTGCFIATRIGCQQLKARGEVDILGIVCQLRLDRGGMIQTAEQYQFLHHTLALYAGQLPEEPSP
In kind it is functional.

In experiment [9] the target is Heat shock cognate 71 kDa protein (Homo sapiens, UniProt P11142). The experiment in a line: In Vitro Hsc70 Dose Response Fluorescence Polarization Assay. [Related pubchem assays: 1072 ]. In general terms: In fluorescence polarisation assays a small probe gives low polarisation when free and higher when bound to something large.
Experiment [10] deals with T3, Lysine-specific demethylase 4C (Homo sapiens, UniProt Q9H3R0).
T3 sequence (Q9H3R0 whole entry): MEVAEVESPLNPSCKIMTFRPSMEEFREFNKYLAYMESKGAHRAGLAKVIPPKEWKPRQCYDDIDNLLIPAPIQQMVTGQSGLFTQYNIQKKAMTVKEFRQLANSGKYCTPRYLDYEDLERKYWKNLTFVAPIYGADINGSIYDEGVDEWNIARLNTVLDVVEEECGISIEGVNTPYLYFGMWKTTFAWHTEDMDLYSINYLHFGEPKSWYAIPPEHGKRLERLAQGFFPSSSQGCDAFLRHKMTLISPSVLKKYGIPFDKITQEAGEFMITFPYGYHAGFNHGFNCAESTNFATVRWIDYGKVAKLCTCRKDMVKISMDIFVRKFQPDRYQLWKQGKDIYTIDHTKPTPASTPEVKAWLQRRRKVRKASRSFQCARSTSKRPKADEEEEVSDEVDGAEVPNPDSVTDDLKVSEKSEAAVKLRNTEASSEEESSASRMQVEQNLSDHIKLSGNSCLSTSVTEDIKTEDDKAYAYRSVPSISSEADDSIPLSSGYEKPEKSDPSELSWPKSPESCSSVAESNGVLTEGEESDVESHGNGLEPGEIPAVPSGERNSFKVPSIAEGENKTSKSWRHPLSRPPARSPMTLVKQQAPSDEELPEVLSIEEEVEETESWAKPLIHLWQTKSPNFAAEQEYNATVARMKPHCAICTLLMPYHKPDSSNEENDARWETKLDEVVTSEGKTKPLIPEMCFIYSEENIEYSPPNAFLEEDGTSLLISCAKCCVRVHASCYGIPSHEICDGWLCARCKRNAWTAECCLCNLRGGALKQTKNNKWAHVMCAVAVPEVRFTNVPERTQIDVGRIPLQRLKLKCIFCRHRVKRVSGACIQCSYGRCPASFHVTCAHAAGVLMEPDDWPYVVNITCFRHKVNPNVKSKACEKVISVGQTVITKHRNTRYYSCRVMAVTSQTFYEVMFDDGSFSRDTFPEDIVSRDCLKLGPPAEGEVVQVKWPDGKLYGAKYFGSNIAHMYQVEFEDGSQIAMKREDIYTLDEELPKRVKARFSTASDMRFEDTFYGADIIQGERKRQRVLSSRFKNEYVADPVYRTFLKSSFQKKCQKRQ
The experiment in a line: GASC-1 (JMJD2C) histone demethylase inhibitors, dose response, biochemical, DELFIA europium, cherry-picked samples (AID 488835). In kind it is functional.

Experiment [11] deals with 26S proteasome non-ATPase regulatory subunit 14 (Homo sapiens, UniProt O00487). The experiment in a line: inhibition of proteasome subunit RPN11 – biochemical, fluorescence polarization, uHTS hits, confirmation (AID 602368). In kind it is functional.
Experiment [12] concerns the target 72 kDa type IV collagenase (Homo sapiens, UniProt P08253). The experiment in a line: Dose Response validation of uHTS RPN11 inhibitor hits using a MMP-2 Fluorescence assay. In kind it is functional.
Experiment [13] deals with DNA (cytosine-5)-methyltransferase 1 (Homo sapiens, UniProt P26358). The experiment in a line: DNMT1 methyltransferase inhibitors, confirmation, biochemical, fluorescent molecular beacon (AID 602386). The class given is functional.
Experiment [14] deals with Heat shock 70 kDa protein 1A (Homo sapiens, UniProt P0DMV8). The experiment in a line: Hsp70 inhibitors, SAR follow-up, biochemical, fluorescence polarization (AID 1072).
The target in experiment [15] is Glyceraldehyde-3-phosphate dehydrogenase (Homo sapiens, UniProt P04406).
In a further experiment the target is ORF 73 (Human herpesvirus 8, UniProt O40947). The experiment in a line: inhibitors of C-LANA binding to LBS DNA, dose response, biochemical, fluorescence polarization, cherry-picked samples (AID 504725).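 Note: fluorescence polarization of a labeled DNA duplex reporting LANA DNA binding; potency is for inhibitors that block LANA binding to the DNA.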 Also on record: species or system Human gammaherpesvirus 8.
In a further experiment the test system is HeLa. The experiment in a line: HeLa cell cytotoxicity, dose response, cytotoxicity control, 24 h, cherry-picked samples (AID 504726).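 Note: potency for cytotoxicity as loss of luminescence signal.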 The class given is functional, cell-based. The settings on record: Homo sapiens.
Experiment [16] has as its target T4, Dual specificity protein phosphatase 6 (Rattus norvegicus, UniProt Q64346).
T4 sequence (Q64346 whole entry): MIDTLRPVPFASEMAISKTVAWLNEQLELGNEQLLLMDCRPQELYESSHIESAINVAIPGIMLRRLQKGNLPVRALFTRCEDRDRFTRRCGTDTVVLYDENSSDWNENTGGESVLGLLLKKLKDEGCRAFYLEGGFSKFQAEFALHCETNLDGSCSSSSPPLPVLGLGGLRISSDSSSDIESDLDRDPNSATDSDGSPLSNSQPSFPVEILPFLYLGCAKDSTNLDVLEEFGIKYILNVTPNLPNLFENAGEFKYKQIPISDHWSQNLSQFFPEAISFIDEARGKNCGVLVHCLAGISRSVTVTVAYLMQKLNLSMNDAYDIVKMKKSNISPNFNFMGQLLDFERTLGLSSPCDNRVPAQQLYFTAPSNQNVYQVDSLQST

Experiment [17] deals with T4, Dual specificity protein phosphatase 6. The class given is functional.
The target in experiment [18] is Eukaryotic translation initiation factor 4E (Mus musculus, UniProt P63073). The experiment in a line: eIF4E–eIF4G protein interaction inhibitors, dose response, biochemical, TR-FRET (AID 855).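 Note: potency for disrupting eIF4E binding to eIF4GI seen as loss of FRET.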 In kind it is functional. On the technique in general: TR-FRET usually uses a lanthanide donor and a delayed reading to cut background.
A further experiment has as its target Large T antigen (Simian virus 40, UniProt P03070). In kind it is functional, Betapolyomavirus macacae.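 Note: Confirmatory-stage PubChem screen for compounds that inhibit SV40 T antigen.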
Another experiment deals with Prothrombin (Bos taurus, UniProt P00735). The experiment in a line: thrombin inhibition, dose response, biochemical, fluorescence polarization, uHTS hits (AID 602369). The class given is functional.
The target in experiment [19] is T4, Dual specificity protein phosphatase 6. The experiment in a line: MKP-3 phosphatase inhibitors, primary screen, biochemical, rat enzyme, in vitro (AID 425).

Active and inactive are the calls of the source.

Large T antigen, sequence (P03070 whole entry): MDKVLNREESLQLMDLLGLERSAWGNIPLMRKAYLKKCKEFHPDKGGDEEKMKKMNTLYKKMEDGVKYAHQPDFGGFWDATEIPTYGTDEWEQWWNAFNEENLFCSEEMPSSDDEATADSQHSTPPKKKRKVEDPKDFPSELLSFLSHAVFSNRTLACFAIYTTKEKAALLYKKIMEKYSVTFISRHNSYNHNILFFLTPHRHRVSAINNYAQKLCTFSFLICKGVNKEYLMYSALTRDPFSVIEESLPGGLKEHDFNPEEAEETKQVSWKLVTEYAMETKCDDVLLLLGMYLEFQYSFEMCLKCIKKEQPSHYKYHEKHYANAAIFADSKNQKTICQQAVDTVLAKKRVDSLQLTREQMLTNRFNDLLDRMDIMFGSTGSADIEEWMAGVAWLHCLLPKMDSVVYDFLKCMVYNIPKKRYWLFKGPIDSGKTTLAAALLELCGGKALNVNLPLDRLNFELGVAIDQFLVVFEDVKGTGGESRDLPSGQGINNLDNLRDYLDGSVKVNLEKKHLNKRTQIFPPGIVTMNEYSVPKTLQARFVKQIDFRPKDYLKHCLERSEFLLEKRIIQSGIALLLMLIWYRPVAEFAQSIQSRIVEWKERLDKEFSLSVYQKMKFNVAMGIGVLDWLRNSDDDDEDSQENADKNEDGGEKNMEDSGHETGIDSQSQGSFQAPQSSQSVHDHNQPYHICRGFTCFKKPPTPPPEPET
DNA (cytosine-5)-methyltransferase 1, sequence (P26358 whole entry): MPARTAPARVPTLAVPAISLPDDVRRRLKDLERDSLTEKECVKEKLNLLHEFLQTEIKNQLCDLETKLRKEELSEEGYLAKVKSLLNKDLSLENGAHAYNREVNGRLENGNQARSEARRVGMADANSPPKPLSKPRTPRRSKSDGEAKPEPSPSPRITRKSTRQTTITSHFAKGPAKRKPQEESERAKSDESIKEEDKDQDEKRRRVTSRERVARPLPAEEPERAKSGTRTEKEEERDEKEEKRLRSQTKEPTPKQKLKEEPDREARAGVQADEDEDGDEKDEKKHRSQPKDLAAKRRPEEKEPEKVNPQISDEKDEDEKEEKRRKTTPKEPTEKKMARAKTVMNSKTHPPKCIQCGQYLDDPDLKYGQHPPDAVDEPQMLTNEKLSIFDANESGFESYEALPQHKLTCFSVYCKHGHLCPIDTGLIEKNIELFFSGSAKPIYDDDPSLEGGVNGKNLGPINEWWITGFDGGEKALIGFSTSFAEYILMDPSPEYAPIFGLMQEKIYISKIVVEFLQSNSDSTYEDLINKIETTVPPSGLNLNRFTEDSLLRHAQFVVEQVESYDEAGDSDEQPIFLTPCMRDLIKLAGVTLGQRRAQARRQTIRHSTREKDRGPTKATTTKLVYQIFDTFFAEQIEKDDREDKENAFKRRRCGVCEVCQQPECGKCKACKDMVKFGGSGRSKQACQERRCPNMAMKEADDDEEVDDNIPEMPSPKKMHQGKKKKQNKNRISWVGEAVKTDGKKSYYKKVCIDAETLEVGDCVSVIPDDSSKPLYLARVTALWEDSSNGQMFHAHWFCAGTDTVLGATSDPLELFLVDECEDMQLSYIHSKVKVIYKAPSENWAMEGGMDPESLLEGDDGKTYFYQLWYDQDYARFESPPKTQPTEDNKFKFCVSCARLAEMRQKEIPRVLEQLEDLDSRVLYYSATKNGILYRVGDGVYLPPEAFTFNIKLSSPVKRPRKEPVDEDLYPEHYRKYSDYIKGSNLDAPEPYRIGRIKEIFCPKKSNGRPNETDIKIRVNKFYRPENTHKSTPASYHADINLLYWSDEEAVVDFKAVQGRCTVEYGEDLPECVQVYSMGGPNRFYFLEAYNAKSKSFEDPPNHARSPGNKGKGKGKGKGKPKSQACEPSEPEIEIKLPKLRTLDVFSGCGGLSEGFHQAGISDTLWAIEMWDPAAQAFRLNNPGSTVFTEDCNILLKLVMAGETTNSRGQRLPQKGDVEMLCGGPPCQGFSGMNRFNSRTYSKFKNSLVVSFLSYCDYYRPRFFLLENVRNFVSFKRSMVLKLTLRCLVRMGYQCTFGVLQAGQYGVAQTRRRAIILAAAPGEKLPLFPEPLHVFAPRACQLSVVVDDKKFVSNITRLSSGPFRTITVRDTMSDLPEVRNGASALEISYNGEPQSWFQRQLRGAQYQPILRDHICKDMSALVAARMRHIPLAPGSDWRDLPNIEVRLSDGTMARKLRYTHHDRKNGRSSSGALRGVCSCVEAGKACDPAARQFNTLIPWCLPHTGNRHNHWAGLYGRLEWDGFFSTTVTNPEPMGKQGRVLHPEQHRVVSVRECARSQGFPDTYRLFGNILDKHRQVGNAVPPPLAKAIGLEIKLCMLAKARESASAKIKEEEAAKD
Eukaryotic translation initiation factor 4E, sequence (P63073 whole entry): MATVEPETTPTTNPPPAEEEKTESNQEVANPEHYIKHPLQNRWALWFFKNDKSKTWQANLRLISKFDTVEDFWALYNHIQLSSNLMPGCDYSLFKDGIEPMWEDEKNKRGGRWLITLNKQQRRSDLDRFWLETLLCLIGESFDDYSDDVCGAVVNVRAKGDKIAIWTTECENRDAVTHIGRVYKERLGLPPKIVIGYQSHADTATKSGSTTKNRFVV
Heat shock 70 kDa protein 1A, sequence (P0DMV8 whole entry): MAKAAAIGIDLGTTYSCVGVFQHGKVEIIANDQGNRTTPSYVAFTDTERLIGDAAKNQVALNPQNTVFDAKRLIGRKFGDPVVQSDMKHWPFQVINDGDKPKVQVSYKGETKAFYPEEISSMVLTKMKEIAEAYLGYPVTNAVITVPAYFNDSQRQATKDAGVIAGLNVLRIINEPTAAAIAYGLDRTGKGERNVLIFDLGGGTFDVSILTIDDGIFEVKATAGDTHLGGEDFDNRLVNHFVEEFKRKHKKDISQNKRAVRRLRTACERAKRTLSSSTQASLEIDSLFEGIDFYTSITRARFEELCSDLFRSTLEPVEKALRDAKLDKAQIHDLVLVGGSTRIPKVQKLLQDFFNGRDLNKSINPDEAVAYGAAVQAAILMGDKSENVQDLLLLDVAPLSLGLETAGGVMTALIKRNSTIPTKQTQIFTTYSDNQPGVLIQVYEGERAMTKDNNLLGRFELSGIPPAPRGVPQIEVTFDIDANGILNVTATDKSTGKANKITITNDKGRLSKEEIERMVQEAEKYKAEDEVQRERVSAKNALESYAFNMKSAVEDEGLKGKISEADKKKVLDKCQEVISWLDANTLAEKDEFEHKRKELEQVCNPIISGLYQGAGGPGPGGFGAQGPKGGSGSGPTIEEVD
72 kDa type IV collagenase, sequence (P08253 whole entry): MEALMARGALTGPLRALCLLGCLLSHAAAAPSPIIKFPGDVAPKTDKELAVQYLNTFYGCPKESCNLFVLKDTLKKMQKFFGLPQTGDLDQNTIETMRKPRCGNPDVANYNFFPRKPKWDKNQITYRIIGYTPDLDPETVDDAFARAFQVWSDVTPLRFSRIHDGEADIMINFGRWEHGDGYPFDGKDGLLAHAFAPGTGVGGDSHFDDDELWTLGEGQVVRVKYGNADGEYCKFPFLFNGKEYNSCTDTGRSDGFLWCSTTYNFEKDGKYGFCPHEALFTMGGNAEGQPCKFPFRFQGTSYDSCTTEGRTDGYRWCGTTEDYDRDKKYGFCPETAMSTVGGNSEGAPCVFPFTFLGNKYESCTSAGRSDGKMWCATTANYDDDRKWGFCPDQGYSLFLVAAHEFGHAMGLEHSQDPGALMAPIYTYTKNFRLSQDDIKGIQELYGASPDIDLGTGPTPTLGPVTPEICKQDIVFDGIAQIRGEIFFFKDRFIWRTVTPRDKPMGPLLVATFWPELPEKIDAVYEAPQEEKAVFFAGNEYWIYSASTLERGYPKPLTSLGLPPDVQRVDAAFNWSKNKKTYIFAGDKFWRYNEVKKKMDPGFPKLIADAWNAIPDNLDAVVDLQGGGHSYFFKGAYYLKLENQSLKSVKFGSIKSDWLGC
Glucose-6-phosphate 1-dehydrogenase, sequence (P11413 whole entry): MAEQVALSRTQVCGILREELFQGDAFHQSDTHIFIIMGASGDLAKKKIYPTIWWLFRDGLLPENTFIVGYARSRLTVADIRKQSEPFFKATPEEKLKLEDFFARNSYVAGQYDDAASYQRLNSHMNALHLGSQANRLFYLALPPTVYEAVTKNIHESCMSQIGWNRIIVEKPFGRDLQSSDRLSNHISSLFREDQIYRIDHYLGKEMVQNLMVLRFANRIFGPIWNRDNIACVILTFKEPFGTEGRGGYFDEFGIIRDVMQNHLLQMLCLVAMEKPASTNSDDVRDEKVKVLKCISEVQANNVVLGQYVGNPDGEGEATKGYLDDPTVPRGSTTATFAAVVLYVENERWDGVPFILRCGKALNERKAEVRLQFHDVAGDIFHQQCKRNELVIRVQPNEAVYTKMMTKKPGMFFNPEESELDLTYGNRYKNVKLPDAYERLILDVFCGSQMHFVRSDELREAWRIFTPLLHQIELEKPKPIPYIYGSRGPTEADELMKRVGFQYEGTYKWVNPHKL
Glyceraldehyde-3-phosphate dehydrogenase, sequence (P04406 whole entry): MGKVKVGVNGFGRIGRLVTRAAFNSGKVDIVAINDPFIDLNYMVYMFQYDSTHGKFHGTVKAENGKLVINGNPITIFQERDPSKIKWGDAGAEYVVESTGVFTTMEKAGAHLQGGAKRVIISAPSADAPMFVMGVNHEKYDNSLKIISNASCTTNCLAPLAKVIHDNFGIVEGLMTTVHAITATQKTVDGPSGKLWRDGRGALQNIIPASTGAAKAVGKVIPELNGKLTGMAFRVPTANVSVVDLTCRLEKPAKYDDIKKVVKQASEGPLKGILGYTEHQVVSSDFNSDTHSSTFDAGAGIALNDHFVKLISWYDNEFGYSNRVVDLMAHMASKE
Dual specificity protein phosphatase 3, sequence (P51452 whole entry): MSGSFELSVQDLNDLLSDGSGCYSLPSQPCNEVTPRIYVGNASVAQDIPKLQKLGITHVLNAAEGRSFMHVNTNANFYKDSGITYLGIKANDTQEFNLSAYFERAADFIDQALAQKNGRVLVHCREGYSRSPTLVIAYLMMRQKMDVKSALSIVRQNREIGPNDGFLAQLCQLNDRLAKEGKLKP

In the case of `COc1ccc(C(=O)NC2CCc3ccccc32)cc1OC1CCN(C(C)C)CC1` (stereo not drawn), the IC50 in experiment [1] is 5.55 µM (active); in experiment [2], 2.12 µM (active); in experiment [3], 3.36 µM (active).

As to `CCN1CCN(C(=S)c2ccc(Cl)c(Cl)c2)CC1`, the IC50 is 0.843 µM (active) in experiment [4], 0.81 µM (active) in [5], > 80 µM (inactive) in experiment [6] and 18.2 µM (active) in experiment [7].

In general, AC50 refers to the concentration at which the activity in the assay is half-maximal. `O=C1CC(=O)N(Cc2ccco2)C(=O)N1`: the IC50 in [8] was 5.11 µM (active); in experiment [9] it was > 100 µM (not active); in experiment [11], 9.99 µM (active); in experiment [12] it was 1.04 µM (active); in experiment [13], 1.58 µM (active); in experiment [14], > 100 µM (not active). For the same compound, the IC50 in [15] is > 100 µM (not active); in experiment [16] it was > 100 µM (inactive); in experiment [17], > 100 µM (inactive); in [18], > 64 µM (inactive); at Large T antigen it was 76.3 µM (active); at Prothrombin, 59.1 µM (active). Moreover, the IC50 in experiment [19] is on record as > 10 µM (not active). For the same compound, the values for the concentration at half-maximal activity (AC50) (in experiment [10]; at ORF 73; with HeLa) were 11.2 µM (active), 132 µM (active) and > 350 µM (inactive), respectively.

The values are drawn from ChEMBL document CHEMBL1201862, “PubChem BioAssay data set” (2004).
